According to patent publication US8916565B2, “Pyrrolopyrazine-spirocyclic piperidine amides as modulators of ion channels” (priority 2011, dated 2014):

These compounds were tested against human NaV subtype, like NaV 1.7 (Homo sapiens, UniProt Q15858) (assay: E-VIPR optical membrane potential assay with electrical stimulation). Details: active against one or more sodium channels; Table 3 does not name the assay or NaV subtype; read-out: Binned Activity Data (IC50).
Assay type: cell-based

Sequence of human NaV subtype, like NaV 1.7 (Q15858 whole entry): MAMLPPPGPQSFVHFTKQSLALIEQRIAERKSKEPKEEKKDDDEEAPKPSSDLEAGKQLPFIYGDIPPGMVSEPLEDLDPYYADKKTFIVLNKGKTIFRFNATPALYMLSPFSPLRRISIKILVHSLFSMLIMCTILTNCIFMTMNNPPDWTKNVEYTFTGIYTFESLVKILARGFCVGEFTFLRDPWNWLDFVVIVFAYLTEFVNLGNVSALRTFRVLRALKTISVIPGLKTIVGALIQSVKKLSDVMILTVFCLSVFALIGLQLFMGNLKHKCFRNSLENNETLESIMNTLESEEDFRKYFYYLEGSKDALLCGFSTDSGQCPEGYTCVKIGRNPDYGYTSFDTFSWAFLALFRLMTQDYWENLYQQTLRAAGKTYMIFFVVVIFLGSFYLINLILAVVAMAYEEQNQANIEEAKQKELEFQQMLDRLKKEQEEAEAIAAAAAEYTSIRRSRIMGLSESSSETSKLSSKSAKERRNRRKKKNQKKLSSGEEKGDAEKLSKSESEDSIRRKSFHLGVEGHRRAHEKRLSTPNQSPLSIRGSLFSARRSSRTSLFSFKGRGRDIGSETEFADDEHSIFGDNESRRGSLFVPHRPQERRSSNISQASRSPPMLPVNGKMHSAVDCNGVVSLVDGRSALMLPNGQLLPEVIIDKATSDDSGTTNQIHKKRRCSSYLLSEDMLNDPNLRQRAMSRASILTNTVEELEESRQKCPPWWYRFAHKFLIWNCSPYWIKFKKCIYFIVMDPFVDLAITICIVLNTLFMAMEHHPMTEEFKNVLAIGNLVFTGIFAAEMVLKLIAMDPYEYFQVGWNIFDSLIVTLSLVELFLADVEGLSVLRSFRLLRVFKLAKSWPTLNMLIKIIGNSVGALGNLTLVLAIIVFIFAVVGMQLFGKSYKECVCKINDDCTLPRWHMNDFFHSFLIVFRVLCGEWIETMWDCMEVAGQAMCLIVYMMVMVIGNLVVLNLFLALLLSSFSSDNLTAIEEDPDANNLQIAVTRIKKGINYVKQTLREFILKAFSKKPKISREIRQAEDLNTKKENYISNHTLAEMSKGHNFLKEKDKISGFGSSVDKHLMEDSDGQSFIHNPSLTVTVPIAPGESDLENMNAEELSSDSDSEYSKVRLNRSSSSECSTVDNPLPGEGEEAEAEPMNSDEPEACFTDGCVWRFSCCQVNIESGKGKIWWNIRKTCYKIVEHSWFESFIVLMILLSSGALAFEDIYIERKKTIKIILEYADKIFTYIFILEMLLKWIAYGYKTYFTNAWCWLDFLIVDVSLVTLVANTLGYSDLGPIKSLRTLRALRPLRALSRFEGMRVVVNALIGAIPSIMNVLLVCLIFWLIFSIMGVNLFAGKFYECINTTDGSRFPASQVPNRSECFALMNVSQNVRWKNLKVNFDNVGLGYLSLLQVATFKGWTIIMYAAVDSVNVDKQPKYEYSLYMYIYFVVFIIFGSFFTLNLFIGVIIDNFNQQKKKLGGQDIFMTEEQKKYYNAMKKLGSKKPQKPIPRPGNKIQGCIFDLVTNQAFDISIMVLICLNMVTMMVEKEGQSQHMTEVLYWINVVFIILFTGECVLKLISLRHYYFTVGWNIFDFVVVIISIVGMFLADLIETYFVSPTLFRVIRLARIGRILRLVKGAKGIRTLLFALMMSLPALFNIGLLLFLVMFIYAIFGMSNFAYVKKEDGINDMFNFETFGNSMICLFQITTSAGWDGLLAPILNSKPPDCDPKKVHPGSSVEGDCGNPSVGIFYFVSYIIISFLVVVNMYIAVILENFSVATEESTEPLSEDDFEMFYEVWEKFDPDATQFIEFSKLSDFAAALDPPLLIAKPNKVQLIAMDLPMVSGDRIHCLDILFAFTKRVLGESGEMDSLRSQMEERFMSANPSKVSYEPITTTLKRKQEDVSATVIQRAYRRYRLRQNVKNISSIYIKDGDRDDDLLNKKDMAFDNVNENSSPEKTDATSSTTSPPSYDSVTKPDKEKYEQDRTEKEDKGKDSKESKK

Compound | IC50
O=C(c1ccnc2ccccc12)N1CCC2(CC1)NCCn1c(C(F)(F)F)ccc12 [Compound 527] | > 5000 nM
COc1ccc(C(=O)N2CCC3(CC2)c2cc(C(=O)C(F)(F)F)cn2C(C)(C)CN3C)cc1Cl [Compound 529] | > 5000 nM
CC(=O)c1ccc2n1CCN(C)C21CCN(C(=O)c2ccc(S(=O)(=O)NC3CC3)cc2)CC1 [Compound 532] | > 5000 nM
Cc1cc(C(=O)N2CCC3(CC2)c2ccc(CC(F)(F)F)n2CCN3C)ccc1S(=O)(=O)C(C)C [Compound 534] | > 5000 nM
COc1cc(C(=O)N2CCC3(CC2)c2ccc(C(C)=O)n2CCN3C)ccc1OC(C)C [Compound 535] | > 5000 nM
CC(=O)c1ccc2n1C(C)(C)CN(C)C21CCN(C(=O)c2ccc(OC(C)C)c(C(F)(F)F)c2)CC1 [Compound 536] | 2000 to 5000 nM
CCCCOc1cc(C(=O)N2CCC3(CC2)c2ccc(Cl)n2CCN3C)ccc1OC [Compound 539] | > 5000 nM
COc1cc(C(=O)N2CCC3(CC2)c2c(F)cc(C(F)(F)F)n2CCN3C)ccc1OCCO [Compound 540] | > 5000 nM
Cc1cc(C(=O)N2CCC3(CC2)c2ccc(S(C)(=O)=O)n2CCN3C)ccc1OC(C)C [Compound 542] | > 5000 nM
COc1cc(C(=O)N2CCC3(c4ccc(C(F)(F)F)n4CCN3C)C(C)C2)ccc1OC(C)C (centres unmarked) [Compound 545] | 2000 to 5000 nM
COc1cc(C(=O)N2CCC3(CC2)c2ccc(CC(F)(F)F)n2CCN3C)ccc1OC(C)C [Compound 547] | > 5000 nM
CC(=O)c1ccc2n1CCN(C)C21CCN(C(=O)c2ccc(OC(C)C)c(CO)c2)CC1 [Compound 558] | > 5000 nM
COc1ccc(C(=O)N2CCC3(CC2)c2cc(C(=O)C(F)(F)F)cn2C(C)(C)CN3C)c(F)c1 [Compound 565] | 2000 to 5000 nM
Cc1cc(C(=O)N2CCC3(CC2)c2ccc(C(F)(F)F)n2CCN3CC(N)=O)ccc1OC(C)C [Compound 571] | 2000 to 5000 nM
CC(=O)c1ccc2n1CCN(C)C21CCN(C(=O)c2ccc(OC(F)(F)F)cc2)CC1 [Compound 577] | > 5000 nM
COc1ccc(C(=O)N2CCC3(CC2)c2ccc(C(=O)C(C)(C)C)n2CCN3C)c(F)c1 [Compound 578] | 2000 to 5000 nM
CN1CCn2c(C(F)(F)F)ccc2C12CCN(C(=O)c1ccnc(N3CCCCC3)c1)CC2 [Compound 581] | 2000 to 5000 nM
Cc1cc(C(=O)N2CCC3(CC2)c2ccc(C(F)(F)F)n2CCN3C)ccc1OCCCO [Compound 583] | ≤ 2000 nM

Compound | IC50
CN1CCn2c(C(F)(F)F)ccc2C12CCN(C(=O)c1ccc(S(=O)(=O)NC3CC3)cc1)CC2 [Compound 584] | ≤ 2000 nM
CN1CCn2c(C(=O)C3(C)CC3)ccc2C12CCN(C(=O)c1ccc(COCCC(F)(F)F)cc1)CC2 [Compound 585] | ≤ 2000 nM
CCCOc1ccc(C(=O)N2CCC3(CC2)c2ccc(C(C)=O)n2CCN3C)cc1OC [Compound 586] | 2000 to 5000 nM
CN1CCn2c(ccc2C(F)(F)C(F)(F)F)C12CCN(C(=O)c1ccc(C3(O)CCCC3)cc1)CC2 [Compound 587] | ≤ 2000 nM
CC(C)Oc1ccc(C(=O)N2CCC3(CC2)c2cc(C(=O)C(F)(F)F)cn2C(C)(C)CN3C)cc1Cl [Compound 588] | > 5000 nM
COc1cc(C(=O)N2CCC3(CC2)NC(C)(C)Cn2c(C(=O)C(F)(F)F)ccc23)ccc1-c1ccccc1 [Compound 589] | ≤ 2000 nM
CCCOc1ccc(C(=O)N2CCC3(CC2)c2ccc(Cl)n2CCN3C)cc1 [Compound 590] | 2000 to 5000 nM
CCC(=O)c1ccc2n1CCN(C)C21CCN(C(=O)c2ccc(C(C)(C)O)c(C)c2)CC1 [Compound 591] | ≤ 2000 nM
CCCCOc1ccc(C(=O)N2CCC3(CC2)c2ccc(C(=O)C(F)(F)F)n2CCN3C)cc1 [Compound 592] | ≤ 2000 nM
Cc1cc(C(=O)N2CCC3(CC2)c2ccc(CC(F)(F)F)n2CCN3C)ccc1C(C)(C)O [Compound 593] | ≤ 2000 nM
COc1cc(C(=O)N2CCC3(CC2)NCCn2c(C(F)(F)F)ccc23)ccc1O [Compound 594] | > 5000 nM
COc1ccc(C(=O)N2CCC3(CC2)NCC(C)n2c(C(=O)C(F)(F)F)ccc23)cc1C (centres unmarked) [Compound 595] | ≤ 2000 nM
COc1ccc(C(=O)N2CCC3(CC2)c2ccc(C(=O)C(F)(F)F)n2C(C)(C)CN3C)cc1C(F)(F)F [Compound 596] | > 5000 nM
Cc1ccc(C(=O)N2CCC3(CC2)c2ccc(C(=O)C(F)(F)F)n2CCN3C)cc1O [Compound 597] | > 5000 nM
Cc1cc(C(=O)N2CCC3(CC2)NC(C)(C)Cn2c(C(F)(F)F)ccc23)ccc1OC(C)C [Compound 598] | ≤ 2000 nM
CC(C)Oc1ccc(C(=O)N2CCC3(CC2)c2ccc(Cl)n2CCN3C)cc1C(F)(F)F [Compound 599] | ≤ 2000 nM
CC1CCN(S(=O)(=O)c2ccc(C(=O)N3CCC4(CC3)c3ccc(C(=O)C(F)(F)F)n3CCN4C)cc2)CC1 [Compound 600] | ≤ 2000 nM
Cc1cc(C(=O)N2CCC3(CC2)c2ccc(C(=O)C(C)(C)C)n2CCN3C)ccc1O [Compound 601] | ≤ 2000 nM

Other lines, results leading:

IC50 | Compound
≤ 2000 nM | CC(C)Oc1ccc(C(=O)N2CCC3(CC2)c2ccc(C(=O)C(F)(F)F)n2CCN3C)cc1Cl [Compound 528]
≤ 2000 nM | CC(C)CCOc1ccc(C(=O)N2CCC3(CC2)c2ccc(Cl)n2CCN3C)cc1 [Compound 530]
≤ 2000 nM | Cc1cc(C(=O)N2CCC3(CC2)c2ccc(Cl)n2CCN3C)ccc1OCC(C)(C)O [Compound 531]
≤ 2000 nM | CNC(=O)N1CCn2c(C(F)(F)F)ccc2C12CCN(C(=O)c1ccc(OC(C)C)c(C)c1)CC2 [Compound 533]
≤ 2000 nM | CCc1ccc(C(=O)N2CCC3(CC2)c2ccc(C(=O)C(F)(F)F)n2CCN3C)cc1OC [Compound 537]
≤ 2000 nM | CCCOc1ccc(C(=O)N2CCC3(CC2)c2ccc(C(=O)C(F)(F)F)n2CCN3C)cc1OC [Compound 538]
≤ 2000 nM | COc1cc(C(=O)N2CCC3(CC2)c2ccc(C(C)=O)n2CCN3C)ccc1OCCOC(F)(F)F [Compound 541]
≤ 2000 nM | COc1cc(C(=O)N2CCC3(CC2)c2ccc(C(F)(F)F)n2CCN3C)cc(F)c1OC(C)C [Compound 544]
≤ 2000 nM | CC(C)Oc1ccc(C(=O)N2CCC3(CC2)c2ccc(C(F)(F)F)n2CCN3C)c(F)c1 [Compound 546]
≤ 2000 nM | CC(C)Oc1ccc(C(=O)N2CCC3(CC2)c2c(C#N)cc(C(F)(F)F)n2CCN3C)cc1Cl [Compound 548]
≤ 2000 nM | CC(C)Oc1ccc(C(=O)N2CCC3(CC2)NCCn2c(C(F)(F)F)ccc23)cc1CO [Compound 549]
≤ 2000 nM | CCCOc1ccc(C(=O)N2CCC3(CC2)NCCn2c(C(F)(F)F)ccc23)cc1OC [Compound 550]
≤ 2000 nM | COc1cc(C(=O)N2CCC3(CC2)NC(C)(C)Cn2c(C(F)(F)F)ccc23)ccc1OC(C)C [Compound 551]
≤ 2000 nM | C[C@H]1Cn2c(C(=O)C(F)(F)F)ccc2C2(CCN(C(=O)c3ccccc3OC(F)F)CC2)N1C [Compound 552]
≤ 2000 nM | CN1CCn2c(C(=O)C(F)(F)F)ccc2C12CCN(C(=O)c1ccc(COCC(F)(F)F)cc1)CC2 [Compound 553]
≤ 2000 nM | COc1cc(C(=O)N2CCC3(CC2)c2c(Cl)cc(C(F)(F)F)n2CCN3C)ccc1COCCC(F)(F)F [Compound 554]
≤ 2000 nM | COc1cc(C(=O)N2CCC3(CC2)c2ccc(C(=O)C(F)(F)F)n2CCN3C)ccc1-c1ccccc1 [Compound 555]
≤ 2000 nM | Cc1nc(C(=O)N2CCC3(CC2)c2ccc(C(=O)C(F)(F)F)n2C(C)CN3C)ccc1OC(C)C (centres unmarked) [Compound 556]
≤ 2000 nM | CC(C)S(=O)(=O)c1ccc(C(=O)N2CCC3(CC2)NC(C)(C)Cn2c(C(=O)C(F)(F)F)ccc23)cc1 [Compound 557]

IC50 | Compound
≤ 2000 nM | CC(=O)c1ccc2n1CCN(C)C21CCN(C(=O)c2ccc(C3CCCCC3)cc2)CC1 [Compound 559]
≤ 2000 nM | Cc1cc(C(=O)N2CCC3(CC2)c2c(Cl)cc(C(F)(F)F)n2CCN3C)ccc1OC(C)C [Compound 560]
≤ 2000 nM | CNS(=O)(=O)c1ccc(C(=O)N2CCC3(CC2)c2ccc(C(=O)C(C)(C)C)n2CCN3C)cc1C [Compound 561]
≤ 2000 nM | CC(C)Oc1ccc(C(=O)N2CCC3(CC2)c2c(F)cc(C(F)(F)F)n2CCN3C)cc1 [Compound 562]
≤ 2000 nM | CC1(C)Cn2c(C(=O)C(F)(F)F)ccc2C2(CCN(C(=O)c3ccc(C4CCCCC4)cc3)CC2)N1 [Compound 563]
≤ 2000 nM | CC(C)Oc1ccc(C(=O)N2CCC3(CC2)c2ccc(C(=O)C(F)(F)F)n2C[C@@H](C)N3C)c(F)c1 [Compound 564]
≤ 2000 nM | COc1ccc(C(=O)N2CCC3(CC2)c2ccc(C(=O)C(C)(C)C)n2CCN3C)cc1C(F)(F)F [Compound 566]
≤ 2000 nM | CC1(C)Cn2c(C(=O)C(F)(F)F)ccc2C2(CCN(C(=O)c3ccc(O)c(C(F)(F)F)c3)CC2)N1 [Compound 567]
≤ 2000 nM | CC(C)Oc1ccc(C(=O)N2CCC3(CC2)c2ccc(C(F)(F)F)n2CCN3C)cc1F [Compound 568]
≤ 2000 nM | O=C(c1ccc(S(=O)(=O)NC2CC2)cc1)N1CCC2(CC1)NCCn1c(C(F)(F)F)ccc12 [Compound 569]
≤ 2000 nM | Cc1cc(C(=O)N2CCC3(CC2)c2ccc(C(=O)C(F)(F)F)n2CCN3C)ccc1OCC(C)(C)O [Compound 570]
≤ 2000 nM | CC[C@@H](C)Oc1ccc(C(=O)N2CCC3(CC2)c2ccc(C(C)=O)n2CCN3C)cc1OC [Compound 572]
≤ 2000 nM | Cc1cc(C(=O)N2CCC3(CC2)c2ccc(C(=O)C(F)(F)F)n2CCN3C)ncc1OC(C)C [Compound 573]
≤ 2000 nM | COc1cc(C(=O)N2CCC3(CC2)c2ccc(C(F)(F)F)n2CCN3CC2CC2)ccc1OC(C)C [Compound 574]
≤ 2000 nM | CN1CCn2c(C(=O)C(F)(F)F)ccc2C12CCN(C(=O)c1ccc(C(C)(C)O)c(F)c1)CC2 [Compound 575]
≤ 2000 nM | CC1(C)Cn2c(C(=O)C(F)(F)F)ccc2C2(CCN(C(=O)c3ccc(-c4ccccc4)c(F)c3)CC2)N1 [Compound 576]
≤ 2000 nM | CCOc1cc(C(=O)N2CCC3(CC2)c2ccc(C(F)(F)F)n2CCN3C)ccc1CO [Compound 579]
≤ 2000 nM | Cc1cc(C(=O)N2CCC3(CC2)c2ccc(C(F)(F)F)n2CCN3C)ccc1OC(C)C [Compound 580]
≤ 2000 nM | CN1CCn2c(C(=O)C(F)(F)F)ccc2C12CCN(C(=O)c1ccc(N3CCCCC3)cc1)CC2 [Compound 582]
